“Also recorded” adds a separate entry of the source.
Experiments:
Type in all cases: functional, cell-based
[1] = biological target: T1, Multidrug resistance-associated protein 1 (Mus musculus, UniProt O35379); assay: TP_TRANSPORTER: efflux in Mrp1-expressing HEK293 cells; conditions: human
[2] = biological target: T2, Multidrug resistance-associated protein 1 (Homo sapiens, UniProt P33527); assay: TP_TRANSPORTER: efflux in MRP1-expressing HEK293 cells
[3] = biological target: T2, Multidrug resistance-associated protein 1; assay: TP_TRANSPORTER: drug resistance in MRP1-expressing HEK293 cells
[4] = biological target: T1, Multidrug resistance-associated protein 1; assay: TP_TRANSPORTER: drug resistance in Mrp1-expressing HEK293 cells; conditions: human

T1 sequence (O35379 whole entry): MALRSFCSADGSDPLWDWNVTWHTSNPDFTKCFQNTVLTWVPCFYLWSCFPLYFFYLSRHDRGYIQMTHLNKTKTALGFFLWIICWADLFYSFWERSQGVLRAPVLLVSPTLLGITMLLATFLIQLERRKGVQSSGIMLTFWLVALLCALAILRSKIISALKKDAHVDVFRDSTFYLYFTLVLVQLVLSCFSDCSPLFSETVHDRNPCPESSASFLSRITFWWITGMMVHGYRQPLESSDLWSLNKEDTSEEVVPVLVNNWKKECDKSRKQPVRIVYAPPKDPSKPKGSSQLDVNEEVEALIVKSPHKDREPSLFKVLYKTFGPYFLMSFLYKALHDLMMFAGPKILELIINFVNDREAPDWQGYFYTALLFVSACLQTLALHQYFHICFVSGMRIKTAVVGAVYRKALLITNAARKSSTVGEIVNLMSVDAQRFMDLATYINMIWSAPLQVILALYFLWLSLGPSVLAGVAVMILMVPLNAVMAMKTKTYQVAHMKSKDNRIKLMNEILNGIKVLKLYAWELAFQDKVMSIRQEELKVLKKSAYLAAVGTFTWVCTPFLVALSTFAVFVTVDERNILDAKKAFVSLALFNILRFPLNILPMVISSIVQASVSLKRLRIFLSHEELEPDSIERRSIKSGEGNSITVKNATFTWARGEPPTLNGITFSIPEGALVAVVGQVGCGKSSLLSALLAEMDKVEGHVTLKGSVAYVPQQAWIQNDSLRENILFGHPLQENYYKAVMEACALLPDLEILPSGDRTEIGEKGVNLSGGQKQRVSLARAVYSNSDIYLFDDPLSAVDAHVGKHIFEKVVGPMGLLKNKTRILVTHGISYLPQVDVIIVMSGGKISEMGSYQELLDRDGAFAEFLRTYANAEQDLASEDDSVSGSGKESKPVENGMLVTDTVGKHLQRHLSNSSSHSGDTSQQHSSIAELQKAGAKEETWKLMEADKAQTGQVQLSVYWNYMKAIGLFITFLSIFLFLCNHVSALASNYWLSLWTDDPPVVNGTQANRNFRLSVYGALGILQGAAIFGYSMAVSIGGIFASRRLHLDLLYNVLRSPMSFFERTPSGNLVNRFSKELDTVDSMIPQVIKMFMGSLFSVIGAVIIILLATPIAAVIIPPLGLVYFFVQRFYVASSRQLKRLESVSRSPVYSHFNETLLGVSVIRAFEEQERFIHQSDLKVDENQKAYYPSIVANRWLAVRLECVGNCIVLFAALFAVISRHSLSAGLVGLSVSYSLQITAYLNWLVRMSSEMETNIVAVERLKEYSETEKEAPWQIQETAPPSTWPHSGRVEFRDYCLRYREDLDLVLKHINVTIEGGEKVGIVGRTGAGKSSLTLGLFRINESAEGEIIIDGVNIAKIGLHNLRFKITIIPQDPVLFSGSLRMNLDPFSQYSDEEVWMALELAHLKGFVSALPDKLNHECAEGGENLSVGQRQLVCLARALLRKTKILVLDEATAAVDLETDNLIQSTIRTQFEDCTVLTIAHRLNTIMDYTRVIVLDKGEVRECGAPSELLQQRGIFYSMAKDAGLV
T2 sequence (P33527 whole entry): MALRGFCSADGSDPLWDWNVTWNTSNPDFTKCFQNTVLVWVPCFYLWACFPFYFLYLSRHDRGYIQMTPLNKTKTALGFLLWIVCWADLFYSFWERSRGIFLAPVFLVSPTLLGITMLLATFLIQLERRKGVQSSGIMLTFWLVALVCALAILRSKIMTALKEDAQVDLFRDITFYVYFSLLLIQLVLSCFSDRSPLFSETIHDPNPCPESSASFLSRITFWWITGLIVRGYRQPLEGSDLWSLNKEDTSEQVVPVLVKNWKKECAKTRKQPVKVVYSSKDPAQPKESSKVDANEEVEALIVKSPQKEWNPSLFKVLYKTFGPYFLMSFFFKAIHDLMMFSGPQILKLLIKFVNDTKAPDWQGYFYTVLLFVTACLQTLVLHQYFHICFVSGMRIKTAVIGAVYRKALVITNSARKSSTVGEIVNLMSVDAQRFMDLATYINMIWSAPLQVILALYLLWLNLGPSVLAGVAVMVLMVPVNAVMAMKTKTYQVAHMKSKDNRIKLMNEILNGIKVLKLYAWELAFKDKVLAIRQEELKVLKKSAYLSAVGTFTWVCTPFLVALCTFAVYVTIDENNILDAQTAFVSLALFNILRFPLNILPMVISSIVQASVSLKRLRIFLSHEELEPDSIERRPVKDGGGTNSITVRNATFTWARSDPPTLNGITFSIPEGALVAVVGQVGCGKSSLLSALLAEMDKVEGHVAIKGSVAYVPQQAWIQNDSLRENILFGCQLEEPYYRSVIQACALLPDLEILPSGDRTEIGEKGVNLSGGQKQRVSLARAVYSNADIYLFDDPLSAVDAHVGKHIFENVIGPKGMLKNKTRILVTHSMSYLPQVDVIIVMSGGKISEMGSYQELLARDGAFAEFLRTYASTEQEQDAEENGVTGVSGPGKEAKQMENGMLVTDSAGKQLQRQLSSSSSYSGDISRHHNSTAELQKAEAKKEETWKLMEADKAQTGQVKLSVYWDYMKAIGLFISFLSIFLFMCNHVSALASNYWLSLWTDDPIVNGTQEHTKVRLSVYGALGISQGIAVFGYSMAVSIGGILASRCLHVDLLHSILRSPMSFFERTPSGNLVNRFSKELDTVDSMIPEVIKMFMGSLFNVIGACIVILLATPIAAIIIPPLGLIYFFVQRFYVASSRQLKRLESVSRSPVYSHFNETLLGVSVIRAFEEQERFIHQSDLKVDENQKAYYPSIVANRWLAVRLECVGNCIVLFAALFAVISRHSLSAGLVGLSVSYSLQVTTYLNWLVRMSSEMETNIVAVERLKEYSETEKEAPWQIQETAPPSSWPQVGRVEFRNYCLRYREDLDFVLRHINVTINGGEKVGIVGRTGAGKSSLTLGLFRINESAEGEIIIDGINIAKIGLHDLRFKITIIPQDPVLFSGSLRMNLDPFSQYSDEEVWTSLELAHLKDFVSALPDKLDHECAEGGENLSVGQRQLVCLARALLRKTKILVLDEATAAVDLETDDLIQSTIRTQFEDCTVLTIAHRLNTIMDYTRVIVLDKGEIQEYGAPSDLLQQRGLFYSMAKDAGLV

| Activity [1] | Activity [2] | Activity [3] | Activity [4] | SMILES |
| --- | --- | --- | --- | --- |
| substrate [+] | substrate [+] |  |  | COc1cc([C@@H]2c3cc4c(cc3[C@@H](O[C@@H]3O[C@@H]5CO[C@@H](C)O[C@H]5[C@H](O)[C@H]3O)[C@H]3COC(=O)[C@H]23)OCO4)cc(OC)c1O [ETOPOSIDE] |
|  |  | substrate [+] | is not a substrate [-] | COc1cccc2c1C(=O)c1c(O)c3c(c(O)c1C2=O)C[C@@](O)(C(=O)CO)C[C@@H]3O[C@H]1C[C@H](N)[C@@H](O)[C@H](C)O1 [EPIRUBICIN] |
| substrate [+] |  |  |  | CC[C@]1(O)C[C@H]2CN(CCc3c([nH]c4ccccc34)[C@@](C(=O)OC)(c3cc4c(cc3OC)N(C=O)[C@H]3[C@@](O)(C(=O)OC)[C@H](OC(C)=O)[C@]5(CC)C=CCN6CC[C@]43[C@@H]65)C2)C1 [VINCRISTINE] |
|  |  | substrate [+] | is not a substrate [-] | COc1cccc2c1C(=O)c1c(O)c3c(c(O)c1C2=O)C[C@@](O)(C(=O)CO)C[C@@H]3O[C@H]1C[C@H](N)[C@H](O)[C@H](C)O1 [DOXORUBICIN] |

| SMILES | Activity [1] | Activity [2] | Activity [3] | Activity [4] |
| --- | --- | --- | --- | --- |
| COc1cc2c(c(OC)c1OC)-c1ccc(OC)c(=O)cc1[C@@H](NC(C)=O)CC2 [COLCHICINE] |  |  |  | substrate [+]; also recorded: is not a substrate [-] |

— ChEMBL document CHEMBL2073844, “Pharmacological characterization of the murine and human orthologs of multidrug-resistance protein in transfected human embryonic kidney cells” (Mol Pharmacol, 1997)
